Test [1] relates to synaptosomes from the striatal area of rat brain. The test can be described thus: [3H]-dopamine release from striatal synaptosomes, continuous perfusion. Type of test: cell-based, Sprague-Dawley rats. The following applies: 0.2 ml of a 20 μM solution of ligand, relative to equal concentration of S(-) nicotine, read-out: Dopamine Release (percent release relative to S(-) nicotine). How it is done:
Dopamine release was measured by preparing synaptosomes from the striatal area of rat brain obtained from Sprague-Dawley rats generally according to the procedures set forth by Nagy, et al., J. Neurochem., Vol. 43, pp. 1114-1123 (1984). Striata from 4 rats were homogenized in 2 ml of 0.32M sucrose buffered with 5 mM HEPES (pH 7.5), using a glass-teflon tissue grinder. The homogenate was diluted to 5 ml with additional homogenization solution and centrifuged at 1000×g for 10 min. This procedure was repeated on the new pellet and the resulting supernatant was centrifuged at 12,000×g for 20 min. […] Using this method, 30 to 90 percent of the dopamine was taken up into the synaptosomes, as determined by scintillation counting following filtration through glass fiber filters soaked with 0.5 percent polyethyleneimine. […] After the addition of a 0.2 ml of a 20 μM solution of ligand, the perfusate was collected into scintillation vials at 1 min. intervals and the dopamine released was quantified by scintillation counting. Peaks of radioactivity released above background were summed and the average basal release during that time was subtracted from the total. Release was expressed as a percentage of release obtained with an equal concentration of S(-) nicotine.

Test [2] deals with high affinity nicotinic receptors. The experiment in a line: Inhibition of L-[3H]nicotine binding to mouse brain membrane preparations. Also on record: species or system Mice (DBA strain). The following applies: 10 nM L-[3H]nicotine, 2 hr at 4° C., mouse brain membranes, Ki calculated from IC50 by Cheng method. The procedure: Mice (DBA strain) were maintained on a 12 hour light/dark cycle and were allowed free access to water and food supplied by Wayne Lab Blox, Madison, WI. Animals used in the present studies were 60 to 90 days of age and weighed 20 to 25 g. Brain membrane preparations were obtained from pooled brain tissue of both males and females.
Mice were killed by cervical dislocation. Brains were removed and placed on an ice-cold platform. The cerebellum was removed and the remaining tissue was placed in 10 volumes (weight:volume) of ice-cold buffer (Krebs-RingersHEPES:NaCl, 118 mM; KCl, 4.8 mM; CaCl2, 2.5 mM; MgSO4, 1.2 mM; HEPES, 20 mM; pH to 7.5 with NaOH) and homogenized with a glass-Teflon tissue grinder. The resulting homogenate was centrifuged at 18000×g for 20 min. and the resulting pellet was resuspended in 20 volumes of water. […] Protein was determined by the method of Lowry, et al., J. Biol. Chem., Vol. 193, pp. 265-275 (1951), using bovine serum albumin as the standard.
The binding of L-[^3 H]nicotine was measured using a modification of the method of Romano, et al., Science, Vol. 210, pp. 647-650 (1980) as described previously by Marks, et al., Mol. Pharmacol., Vol. 30, pp. 427-436 (1986). The binding of L-[^3 H]nicotine was measured using a 2 hr. incubation at 4° C. […] Nonspecific binding was determined by inclusion of 10 μM nonradioactive nicotine in the incubations. […]

SMILES strings stand for the structures.

As to `CNCC/C=C/c1cccnc1` [trans-meta-nicotine], the Emax in test [1] came out at 70%. In addition, the Ki – broadly, a measure of affinity in units of concentration, obtained from inhibition or displacement – in test [2] is 21 ± 5 nM.

The record behind these values is patent US5212188A, “Method for treatment of neurodegenerative diseases” (R. J. Reynolds Tabacco Company, priority 1992, dated 1993).
